Several values for one entry are separate records, joined by “and”; a condition that tells them apart may be missing. Equal entries are not always repeated. ± gives the expanded uncertainty stated by the source.
How the values were obtained:
[1] = Crystal, Calculated from knudsen effusion weight loss
[2] = molar enthalpy of vaporization or sublimation; settings: 298.15 K; Crystal; Static calorimetry

SMILES: CN1c2ccccc2Sc2ccccc21 [10-methylphenothiazine]
- vapor or sublimation pressure ([1]; 337.16 K): 9.9e-05 ± 6e-05 kPa and 9.8e-05 ± 6e-05 kPa and 9.7e-05 ± 6e-05 kPa
- vapor or sublimation pressure ([1]; 339.27 K): 0.000127 ± 6e-05 kPa and 0.000128 ± 6e-05 kPa and 0.000124 ± 6e-05 kPa
- vapor or sublimation pressure ([1]; 341.16 K): 0.000156 ± 6e-05 kPa and 0.000152 ± 6e-05 kPa
- vapor or sublimation pressure ([1]; 343.16 K): 0.000187 ± 6e-05 kPa and 0.000186 ± 6e-05 kPa and 0.000188 ± 6e-05 kPa
- vapor or sublimation pressure ([1]; 345.25 K): 0.000242 ± 6.1e-05 kPa and 0.000237 ± 6.1e-05 kPa and 0.000246 ± 6.1e-05 kPa
- vapor or sublimation pressure ([1]; 347.15 K): 0.000294 ± 6.1e-05 kPa and 0.000295 ± 6.1e-05 kPa and 0.000286 ± 6.1e-05 kPa
- vapor or sublimation pressure ([1]; 349.16 K): 0.000354 ± 6.1e-05 kPa and 0.000353 ± 6.1e-05 kPa and 0.000361 ± 6.1e-05 kPa
- vapor or sublimation pressure ([1]; 351.26 K): 0.000456 ± 6.2e-05 kPa and 0.000445 ± 6.2e-05 kPa and 0.00046 ± 6.2e-05 kPa
- vapor or sublimation pressure ([1]; 353.16 K): 0.000551 ± 6.3e-05 kPa and 0.000553 ± 6.3e-05 kPa and 0.000539 ± 6.3e-05 kPa
- vapor or sublimation pressure ([1]; 355.16 K): 0.000655 ± 6.4e-05 kPa and 0.000671 ± 6.5e-05 kPa
- vapor or sublimation pressure ([1]; 357.26 K): 0.000853 ± 6.7e-05 kPa and 0.00084 ± 6.7e-05 kPa and 0.000822 ± 6.7e-05 kPa
- vapor or sublimation pressure ([1]; 359.15 K): 0.001002 ± 9.3e-05 kPa and 0.001018 ± 9.4e-05 kPa and 0.00102 ± 9.4e-05 kPa
- molar enthalpy [2]: 24.8 ± 0.55 kcal/mol

Source: the NIST ThermoML archive (doi:10.1016/j.jct.2015.10.013)
